Assay results reported in PubChem BioAssay (NCI).
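Protocol summary: plate cells (96-well), add compound at 5 concentrations, incubate 48 h, interpolate endpoints linearly. Abbreviation: GI50, concentration required for 50% inhibition of growth. TGI: concentration producing complete growth inhibition.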

Key:
Assay in all cases: NCI-60 cell line screen, 48 h
SK-MEL-2 melanoma = system: SK-MEL-2 melanoma
SK-MEL-28 melanoma = system: SK-MEL-28 melanoma
786-0 renal = system: 786-0 renal
HOP-92 NSCLC = system: HOP-92 NSCLC
IGROV1 ovarian = system: IGROV1 ovarian
M14 melanoma = system: M14 melanoma
SK-OV-3 ovarian = system: SK-OV-3 ovarian
COLO 205 colon = system: COLO 205 colon
NCI/ADR-RES ovarian = system: NCI/ADR-RES ovarian
RXF 393 renal = system: RXF 393 renal

SMILES | GI50 (SK-MEL-2 melanoma) | TGI (SK-MEL-2 melanoma) | GI50 (SK-MEL-28 melanoma) | TGI (SK-MEL-28 melanoma) | GI50 (786-0 renal) | TGI (786-0 renal) | GI50 (HOP-92 NSCLC) | TGI (HOP-92 NSCLC) | GI50 (IGROV1 ovarian) | TGI (IGROV1 ovarian) | GI50 (M14 melanoma) | TGI (M14 melanoma) | GI50 (SK-OV-3 ovarian) | TGI (SK-OV-3 ovarian) | GI50 (COLO 205 colon) | TGI (COLO 205 colon) | GI50 (NCI/ADR-RES ovarian) | TGI (NCI/ADR-RES ovarian) | GI50 (RXF 393 renal) | TGI (RXF 393 renal)
C#Cc1cc2c(N)c(C(=O)c3cc(OC)c(OC)c(OC)c3)[nH]c2cc1OC | 0.572 µM | 62.9 µM | 19.3 µM | > 100 µM | 0.542 µM | > 100 µM | 0.334 µM | 37.7 µM | 2.05 µM | 74.9 µM | 0.521 µM | > 100 µM | 0.517 µM | > 100 µM | 0.38 µM | 2.27 µM | – | – | – | –
Oc1ccc(Cl)cc1-c1cc(-c2ccc(F)cc2)n[nH]1 | 4.11 µM | 19.3 µM | 8.35 µM | > 100 µM | 1.82 µM | 3.41 µM | – | – | 1.23 µM | 8.44 µM | 3.5 µM | 17.2 µM | 1.99 µM | 5.21 µM | 2.08 µM | 4.85 µM | 2.19 µM | 6.98 µM | 2.83 µM | 7.82 µM
CC(=O)n1ccc2c(Cl)ncnc21 | – | > 100 µM | – | > 100 µM | – | > 100 µM | – | > 100 µM | – | > 100 µM | – | > 100 µM | – | > 100 µM | – | > 100 µM | – | – | – | > 100 µM
COC(=O)C1C2CC3C(OC(=O)C31)C2OC(=O)[C@](OC)(c1ccccc1)C(F)(F)F (some centres not stated) | – | > 100 µM | – | > 100 µM | – | > 100 µM | – | > 100 µM | – | > 100 µM | – | > 100 µM | – | > 100 µM | – | > 100 µM | – | – | – | > 100 µM
CN(C)CC1CCCC/C1=N/OC(=O)c1ccc(Cl)c(Cl)c1 (configuration not stated) | – | > 100 µM | – | > 100 µM | – | > 100 µM | – | > 100 µM | – | > 100 µM | – | > 100 µM | – | > 100 µM | – | > 100 µM | – | – | – | > 100 µM
N#C/C(=C\c1ccccc1Br)C(=O)c1ccccc1 | – | > 100 µM | – | > 59.1 µM | – | 30.5 µM | – | > 100 µM | – | – | – | > 68.1 µM | – | > 100 µM | – | > 100 µM | – | – | – | > 100 µM
COC(=O)Cc1nc2ccccc2o1 | – | > 100 µM | – | > 100 µM | – | > 100 µM | – | > 100 µM | – | > 100 µM | – | > 100 µM | – | > 100 µM | – | > 100 µM | – | – | – | > 100 µM
COc1ccc(C(=O)O/N=C2/CCC/C2=C\c2ccccc2)cc1 | – | > 100 µM | – | > 100 µM | – | > 100 µM | – | > 100 µM | – | > 100 µM | – | > 100 µM | – | > 100 µM | – | > 100 µM | – | – | – | > 100 µM
C[n+]1c(N)n(C(=O)OCc2ccccc2)c(=O)c2c1ncn2C(=O)OCc1ccccc1 | – | > 100 µM | – | > 100 µM | – | > 100 µM | – | – | – | > 100 µM | – | > 100 µM | – | > 100 µM | – | > 100 µM | – | – | – | –
C[N+](C)(C)CC1CCCC/C1=N\O (configuration not stated) | – | > 100 µM | – | > 100 µM | – | > 100 µM | – | > 100 µM | – | > 100 µM | – | > 100 µM | – | > 100 µM | – | > 100 µM | – | – | – | > 100 µM
CC1=C(C(=O)Nc2ccccc2)C(c2ccc(C(C)C)cc2)C(C(=O)Nc2ccccc2)=C(C)N1 | – | 31.2 µM | – | > 63.7 µM | – | 30.2 µM | – | 32.5 µM | – | > 100 µM | – | 55.9 µM | – | 82.9 µM | – | 28.6 µM | – | – | – | 27.6 µM
Nc1nc(N)c(-c2ccccc2)c(CCC(=O)Nc2ccc(Cl)cc2)n1 | – | > 100 µM | – | > 100 µM | – | > 100 µM | – | > 100 µM | – | > 100 µM | – | > 100 µM | – | > 100 µM | – | > 100 µM | – | – | – | –
Cc1ncc([N+](=O)[O-])n1CCNC(=O)CCCCCn1ccnc1[N+](=O)[O-] | – | > 100 µM | – | – | – | > 100 µM | – | – | – | > 100 µM | – | > 100 µM | – | > 100 µM | – | > 100 µM | – | > 100 µM | – | –
CCOC(=S)SCN1C(=O)c2ccccc2S1(=O)=O | 44.5 µM | > 100 µM | 3.42 µM | 15 µM | 20.9 µM | 47.9 µM | – | – | 18.5 µM | 52.4 µM | 16.4 µM | 33.5 µM | 32.1 µM | > 100 µM | 2.94 µM | 11.2 µM | 14.1 µM | 50.8 µM | 6.97 µM | 21.6 µM
O=C(/C(=C/c1ccccc1)c1ccccc1)N1c2ccccc2CC1c1c[nH]c2ccccc12 (configuration not stated) | – | 81.9 µM | – | > 100 µM | – | > 100 µM | – | > 100 µM | – | > 100 µM | – | > 100 µM | – | > 100 µM | – | 24.7 µM | – | – | – | > 100 µM
CC(C)(C)OC(=O)N1N=NC2C3OC(CC3=O)C21 (configuration not stated) | – | > 100 µM | – | > 100 µM | – | > 100 µM | – | > 100 µM | – | > 100 µM | – | > 100 µM | – | > 100 µM | – | > 100 µM | – | – | – | –
